Data as given in article PMC10046037, “GABRG2 Variants Associated with Febrile Seizures” (Biomolecules, 2023).

Biological target: T1, α1β3γ2 GABAA receptor, γ2S325L variant (Homo sapiens, UniProt P14867+P18507+P28472, S325L)
T1 construct: expressed in transfected cells; host or cells: HEK293T
T1 sequence (P14867 28-456): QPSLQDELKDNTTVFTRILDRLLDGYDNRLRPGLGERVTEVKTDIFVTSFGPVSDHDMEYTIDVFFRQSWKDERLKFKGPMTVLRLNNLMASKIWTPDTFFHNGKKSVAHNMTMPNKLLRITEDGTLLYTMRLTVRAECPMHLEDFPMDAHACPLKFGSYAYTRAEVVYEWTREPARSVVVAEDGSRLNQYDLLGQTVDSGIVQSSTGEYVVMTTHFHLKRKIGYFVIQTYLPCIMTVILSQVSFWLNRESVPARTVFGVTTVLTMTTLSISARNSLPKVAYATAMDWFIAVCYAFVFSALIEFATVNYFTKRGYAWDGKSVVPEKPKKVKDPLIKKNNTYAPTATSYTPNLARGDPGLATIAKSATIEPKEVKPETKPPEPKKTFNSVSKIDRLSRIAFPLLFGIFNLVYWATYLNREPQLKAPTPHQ
T1 sequence (P28472 26-473 isoform P28472-2): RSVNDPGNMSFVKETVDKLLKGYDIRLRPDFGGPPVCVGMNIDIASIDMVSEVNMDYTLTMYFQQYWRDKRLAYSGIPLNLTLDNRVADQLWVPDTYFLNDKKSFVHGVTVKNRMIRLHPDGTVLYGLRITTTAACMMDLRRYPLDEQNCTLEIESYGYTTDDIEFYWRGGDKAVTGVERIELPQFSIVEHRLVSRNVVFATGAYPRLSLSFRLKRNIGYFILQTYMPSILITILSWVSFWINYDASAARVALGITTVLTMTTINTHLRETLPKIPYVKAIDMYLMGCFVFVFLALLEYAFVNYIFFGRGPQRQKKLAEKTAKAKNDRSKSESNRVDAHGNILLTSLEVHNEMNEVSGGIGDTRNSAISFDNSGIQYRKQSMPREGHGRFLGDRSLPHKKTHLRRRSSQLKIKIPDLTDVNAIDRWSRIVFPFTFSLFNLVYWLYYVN
T1 sequence (P18507 40-475 S325L): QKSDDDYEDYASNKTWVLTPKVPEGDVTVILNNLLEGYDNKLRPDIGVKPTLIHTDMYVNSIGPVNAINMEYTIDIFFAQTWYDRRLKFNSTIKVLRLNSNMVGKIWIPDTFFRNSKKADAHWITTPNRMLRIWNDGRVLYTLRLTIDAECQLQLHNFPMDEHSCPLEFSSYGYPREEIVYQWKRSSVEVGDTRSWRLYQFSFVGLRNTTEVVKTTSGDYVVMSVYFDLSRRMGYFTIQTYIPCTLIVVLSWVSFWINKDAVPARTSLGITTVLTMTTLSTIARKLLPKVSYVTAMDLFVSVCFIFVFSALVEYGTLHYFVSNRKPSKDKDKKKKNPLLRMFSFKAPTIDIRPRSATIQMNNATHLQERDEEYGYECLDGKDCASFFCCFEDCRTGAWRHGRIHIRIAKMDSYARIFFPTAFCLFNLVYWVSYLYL
Test: Automated patch clamp of GABA-elicited currents (SyncroPatch 384PE), γ2S325L
Type: cell-based
Conditions: mean
Experimental: The coding sequences of human α1 (GABRA1, NM_000806), β3 (GABRB3, NM_021912), and γ2 (GABRG2, NM_198904.2) GABAAR subunits were subcloned into the pcDNA3.1 expression vectors (Invitrogen, Waltham, MA, USA).
HEK293T cells (ATCC, CRL-11268) were cultured at 37 °C in a humidified 5% CO2 incubator and maintained in Dulbecco’s modified Eagle’s medium (Invitrogen) supplemented with 10% fetal bovine serum (Life Technologies, Carlsbad, CA, USA), and 100 IU/mL of penicillin/streptomycin (Life Technologies). For the expression experiments, 4 × 10^5 cells were transfected using polyethylenimine (PEI) reagent (40 kD, Polysciences, Warrington, PA, USA) at a DNA: to transfection reagent ratio of 1:2.5 and harvested 36 h after transfection. To express WT and variant α1β3γ2 receptors, a total of 3 µg of α1, β3, and γ2 (WT or mutant) subunit cDNAs were transfected at a ratio of 1:1:1 into 60 mm culture dishes. For the mock-transfected condition, an empty pcDNA3.1 vector was added for a final cDNA transfection amount of 3 μg. For the electrophysiology experiments, 2.5 × 10^5 cells were plated in 100 mm culture dishes and transfected after 24 h with 3 μg of cDNA of each α1, β3, γ2 (wild-type or mutant) subunit, using X-tremeGENE HP DNA transfection Reagent (Roche Diagnostics, Basel, Switzerland), following the manufacturer’s protocol. Recordings were obtained forty-eight hours after transfection.
Whole-cell patch clamp recordings were conducted according to the manufacturer’s standard procedure for the SyncroPatch 384 [31]. Whole-cell voltage-clamp recordings were performed at room temperature on HEK293T cells 48 h after transfection with GABAAR subunits, using the SyncroPatch 384PE (Nanion Technologies, Munich, Germany). Cells, at a concentration of 400,000 cells/mL, were harvested in suspension in external solution containing 140 mM of NaCl, 2 mM of CaCl2, 4 mM of KCl, 1 mM of MgCl2, 5 mM of glucose, and 10 mM of HEPES (pH 7.4 with NaOH, 298 mOsm). The cells were loaded in a multi-hole (4 holes per well) 384-well Nanion patch clamp (NPC) chip with a thick borosilicate glass bottom and an average resistance pore size of […]. Built-in electrophysiological protocols were used, and the data were digitized using PatchControl 384 (Nanion Technologies) application. Using PatchControl 384, electrophysiological parameters, such as seal resistance, capacitance, and series resistance, were determined for each well after the application of a test pulse, and subsequently monitored over time. […] The currents were normalized to the maximal response of each well, and the concentration–response curves were calculated from single-point additions. The EC50 values for each variant or wild-type receptor were calculated across multiple wells for each experimental condition.

With `NCCCC(=O)O` [GABA, γ-aminobutyric acid] the Deactivation (1 mM GABA for 5 ms, HEK293T, -80 mV) was 307.7 ms, the “IMAX (maximal GABA-evoked peak current)” value (1 mM GABA for 5 ms, HEK293T) was 0.78 nA and the “IMAX variant/IMAX WT” value (1 mM GABA) was 39.07%. The “Rise Time” value (10–90% rise time, 1 mM GABA for 5 ms, HEK293T) was 68.01 ms.
